IC50 data for 13 compounds are collected here from US20190322676A1, “CERAMIDE GALACTOSYLTRANSFERASE INHIBITORS FOR THE TREATMENT OF DISEASE” (BioMarin Pharmaceutical Inc., priority 2016, published 2019).

Test [1] addresses T1, human CGT (ceramide galactosyltransferase), CHO/CGT lysate (Homo sapiens, UniProt Q16880).
T1 construct: Full-length human CGT cDNA was cloned into the BamH1/Xho1 site of pcDNA3.1 (+); expressed in transfected cells; host or cells: Chinese hamster ovary (CHO) cells; lysate prepared with M-PER
T1 sequence (Q16880 21-541): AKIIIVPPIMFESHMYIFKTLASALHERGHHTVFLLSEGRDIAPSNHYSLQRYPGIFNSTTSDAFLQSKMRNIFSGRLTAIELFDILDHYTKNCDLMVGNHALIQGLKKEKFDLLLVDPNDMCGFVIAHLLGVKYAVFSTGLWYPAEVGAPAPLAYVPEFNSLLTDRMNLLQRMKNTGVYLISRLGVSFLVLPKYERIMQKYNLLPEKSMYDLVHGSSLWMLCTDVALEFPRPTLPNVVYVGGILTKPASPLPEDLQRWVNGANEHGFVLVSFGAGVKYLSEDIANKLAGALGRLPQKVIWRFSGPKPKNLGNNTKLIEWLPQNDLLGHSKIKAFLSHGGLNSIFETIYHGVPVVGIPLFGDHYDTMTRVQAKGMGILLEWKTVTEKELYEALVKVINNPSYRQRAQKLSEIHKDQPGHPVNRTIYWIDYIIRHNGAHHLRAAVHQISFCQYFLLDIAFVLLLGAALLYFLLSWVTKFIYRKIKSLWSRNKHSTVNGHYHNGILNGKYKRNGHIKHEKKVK
The test is described as follows: CGT enzyme assay, RapidFire/MS/MS readout (Table 1 ranges with one asterisk *). The conditions noted are these: RapidFire method (range with one asterisk *). It counts as biochemical. A digest of the protocol: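 Lysate (4 μg) of CHO cells transfected with full-length human CGT incubated 1 h at 37 °C with compound (0.001–50 μM) in pH 7.2 HEPES buffer with 10 μM C6-NBD-dihydro-ceramide, 17.5 μM UDP-galactose, Mg2+/Mn2+, CHAPS, BSA, 0.5% DMSO; ** set also contained 0.01% Tween 80. Product quantified by RapidFire/MS/MS, normalized to internal standard; IC50 from sigmoidal variable-slope fits.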

The target in test [2] is T1, human CGT (ceramide galactosyltransferase), CHO/CGT lysate. The test is described as follows: CGT enzyme assay, RapidFire/MS/MS readout with 0.01% Tween added (Table 1 ranges with two asterisks **). It counts as biochemical. Here is the method:
Full-length human CGT cDNA was cloned into the BamH1/Xho1 site of pcDNA3.1 (+) mammalian expression vector (V90-20, Invitrogen, Carlsbad, Calif.) and the plasmid was transfected into Chinese hamster ovary (CHO) cells. Lysate was prepared using M-PER (Mammalian Protein Extraction Reagent, ThermoFisher Scientific, Grand Island, N.Y.) in the presence of a protease inhibitor cocktail (P8340, Sigma, Saint Louis, Mo.). Each 100 mm dish (100% confluent, approximately 1×10^7 cells) was lysed with 250 μL of M-PER containing protease inhibitors. Protein concentration was determined using a Pierce BCA protein assay kit (ThermoFisher Scientific). Four micrograms of CHO/CGT lysate was incubated with various concentrations of a compound (0.001 μM-50 μM) in 10 mM HEPES (pH 7.2) containing 35 μM dioleoylphosphatidylcholine, 5 mM MgCl2, 5 mM MnCl2, 1% BSA, 15 mM KCl, 1 mM EGTA, 8 mM CHAPS, 10 μM C6-NBD-dihydro-ceramide and 17.5 μM UDP-galactose in a final reaction volume of 20 μL at 37° C. for 1 hour. The final concentration of DMSO was 0.5% in both compound-treated and mock-treated samples. Tween 80 (0.01%) was optionally added to the reaction mixture to help solubilize the compounds. Each individual reaction was diluted with 80 μL of methanol:acetronitrile (1:3) containing 5 μM N-docdecanoyl-NBD-galactosylceramide (internal standard) to stop the reaction. 200 μL H2O:acetonitile (1:1) was added to precipitate the protein. After sufficient mixing, the plates were centrifuged at 2469 g for 38 minutes, 200 μL of supernatant was transferred to a LC/MS 96-deep well plate and a second spin was performed at 2469 g for 10 minutes. The final supernatant was injected in triplicate for RapidFire/MS/MS analysis.
Quantitative Analysis Using the RapidFire/MS/MS Method:
The quantitative analysis of C6-NBD-dihydro-ceramide and C6-NBD-dihydro-galactosylceramide was performed on a Rapid Fire 360 high-throughput mass spectrometry system (Agilent Technologies, Palo Alto, Calif.) coupled with a API4000^+ triple quadrupole mass spectrometer (Applied Biosystems, Concord, Ontario, Canada). RapidFire software packages, including RapidFire Control panel, RapidFire UI and RapidFire Integrator (Agilent Technologies), were used to control the RapidFire instrument and to process data. Analyst 1.6.2 software packages (Applied Biosystems) were used to control the MS system and acquire MS data. […] of sample was loaded on a micro-scale C4 solid-phase extraction (SPE) cartridge (Agilent Technologies) and salts were removed using water supplemented with 0.1% formic acid at the flow rate of 1.5 mL/min for 3 sec. C6-NBD-dihydro-ceramide and C6-NBD-dihydro-galactosylceramide were co-eluted into the mass spectrometer using acetonitrile containing 0.1% formic acid at the flow rate of 1.0 mL/min for 3 sec. The total cycle time of one injection was 8 secs. The MS/MS detection was performed in ESI negative mode. The mass transition of C6-NBD-dihydro-galactosylceramide was m/z 752.6→678.6 using a −40 V collision energy, the mass transition of C6-NBD-dihydro-ceramide was m/z 590.6→115.8 using a −40 V collision energy and the mass transition of N-docdecanoyl-NBD-galactosylceramide was m/z 820.9→746.3 using a −45 V collision energy.
The C6-NBD-dihydro-galactosylceramide reading was normalized first by dividing the peak area of C6-NBD-dihydro-galactosylceramide by the peak area of the internal standard, N-docdecanoyl-NBD-galactosylceramide. IC50 values (see Table 1, where data ranges with one asterix (*) correspond to analysis using the RapidFire/MS/MS method, and data ranges with two asterixes (**) correspond to analysis using the RapidFire/MS/MS method with 0.01% Tween added) were generated from sigmoidal dose-response curves (variable slope) with GraphPad Prism software (GraphPad Software, Inc., San Diego, Calif.) using the normalized peak areas of C6-NBD-dihydro-galactosylceramide or the percent inhibition of C6-NBD-dihydro-galactosylceramide accumulation relative to DMSO control. […]

[3] abbreviates: CGT enzyme assay, RapidFire/MS/MS method with 0.01% Tween added (range with two asterisks **).
The mark [4] stands for this setting: CGT enzymatic assay, range with two asterisks (**): RapidFire/MS/MS method with 0.01% Tween added.

Where a name gives a salt, the structure may show the parent alone.

`NC1CCN(C(=O)[C@@H](NC(=O)[C@H](O)c2ccc(OCC3CCCCC3)cc2)C(F)(F)c2ccc(-c3ccc(Cl)cc3)cc2)CC1` [Compound 141-1, (R)—N—((R)-3-(4-aminopiperidin-1-yl)-1-(4′-chloro-[1,1′-biphenyl]-4-yl)-1,1-difluoro-3-oxopropan-2-yl)-2-(4-(cyclohexylmethoxy)phenyl)-2-hydroxyacetamide trifluoroacetate] registered a concentration for half-maximal inhibition (IC50) in test [1] of 1 to 10 µM. Same read-out and setting: then `NC1CCN(C(=O)[C@H](NC(=O)[C@@H](O)c2ccc(OCC3CCCCC3)cc2)C(F)(F)c2ccc(-c3ccc(Cl)cc3)cc2)CC1` [Compound 141-2, (S)—N—((S)-3-(4-aminopiperidin-1-yl)-1-(4′-chloro-[1,1′-biphenyl]-4-yl)-1,1-difluoro-3-oxopropan-2-yl)-2-(4-(cyclohexylmethoxy)phenyl)-2-hydroxyacetamide trifluoroacetate], with 10 to 30 µM. In test [1], `NC1CCN(C(=O)[C@@H](NC(=O)[C@@H](O)c2ccc(OCC3CCCCC3)cc2)C(F)(F)c2ccc(-c3ccc(Cl)cc3)cc2)CC1` [Compound 141-3, (S)—N—((R)-3-(4-aminopiperidin-1-yl)-1-(4′-chloro-[1,1′-biphenyl]-4-yl)-1,1-difluoro-3-oxopropan-2-yl)-2-(4-(cyclohexylmethoxy)phenyl)-2-hydroxyacetamide trifluoroacetate] came in with an IC50 of 1 to 10 µM. `NC1CCN(C(=O)[C@H](NC(=O)[C@H](O)c2ccc(OCC3CCCCC3)cc2)C(F)(F)c2ccc(-c3ccc(Cl)cc3)cc2)CC1` [Compound 141-4, (R)—N—((S)-3-(4-aminopiperidin-1-yl)-1-(4′-chloro-[1,1′-biphenyl]-4-yl)-1,1-difluoro-3-oxopropan-2-yl)-2-(4-(cyclohexylmethoxy)phenyl)-2-hydroxyacetamide trifluoroacetate]: the IC50 in test [1] lay in the range of 30 to 100 µM. `COc1cc(C(F)(F)[C@H](NS(=O)(=O)c2ccc(OCC3CCCCC3)cc2)C(=O)N2C3CCC2CC(N)C3)ccc1-c1ccc(Cl)cc1` (stereo partly drawn) [Compound 142-1, N-((2R)-3-(3-amino-8-azabicyclo[3.2.1]octan-8-yl)-1-(4′-chloro-2-methoxy-[1,1′-biphenyl]-4-yl)-1,1-difluoro-3-oxopropan-2-yl)-4-(cyclohexylmethoxy) benzenesulfonamide trifluoroacetate] returned an IC50 in test [2] (setting [3]) of less than 1 µM. Same read-out and setting: then `COc1cc(C(F)(F)[C@@H](NS(=O)(=O)c2ccc(OCC3CCCCC3)cc2)C(=O)N2C3CCC2CC(N)C3)ccc1-c1ccc(Cl)cc1` (stereo partly drawn) [Compound 142-2, N-((2S)-3-(3-amino-8-azabicyclo[3.2.1]octan-8-yl)-1-(4′-chloro-2-methoxy-[1,1′-biphenyl]-4-yl)-1,1-difluoro-3-oxopropan-2-yl)-4-(cyclohexylmethoxy)benzenesulfonamide trifluoroacetate], with 1 to 10 µM; and `COc1cc(C(F)(F)[C@H](NS(=O)(=O)c2ccc3cc(OC4CCCC4)ccc3c2)C(=O)N2CCC(N)CC2)ccc1Br` [Compound 143-1, (R)—N-(3-(4-aminopiperidin-1-yl)-1-(4-bromo-3-methoxyphenyl)-1,1-difluoro-3-oxopropan-2-yl)-6-(cyclopentyloxy)naphthalene-2-sulfonamide trifluoroacetate], with 1 to 10 µM; and `COc1cc(C(F)(F)[C@@H](NS(=O)(=O)c2ccc3cc(OC4CCCC4)ccc3c2)C(=O)N2CCC(N)CC2)ccc1Br` [Compound 143-2, (S)—N-(3-(4-aminopiperidin-1-yl)-1-(4-bromo-3-methoxyphenyl)-1,1-difluoro-3-oxopropan-2-yl)-6-(cyclopentyloxy) naphthalene-2-sulfonamide trifluoroacetate], with 1 to 10 µM. Regarding `COc1cc(C(F)(F)[C@H](NS(=O)(=O)c2ccc3cc(OC4CCCC4)ccc3c2)C(=O)N2CCC(N)CC2)ccc1-c1ccc(Cl)cc1` [Compound 144-1, (R)—N-(3-(4-aminopiperidin-1-yl)-1-(4′-chloro-2-methoxy-[1,1′-biphenyl]-4-yl)-1,1-difluoro-3-oxopropan-2-yl)-6-(cyclopentyloxy)naphthalene-2-sulfonamide trifluoroacetate], in test [2] (setting [3]), the IC50 was less than 1 µM. On the same count and under the same terms, then `COc1cc(C(F)(F)[C@@H](NS(=O)(=O)c2ccc3cc(OC4CCCC4)ccc3c2)C(=O)N2CCC(N)CC2)ccc1-c1ccc(Cl)cc1` [Compound 144-2, (S)—N-(3-(4-aminopiperidin-1-yl)-1-(4′-chloro-2-methoxy-[1,1′-biphenyl]-4-yl)-1,1-difluoro-3-oxopropan-2-yl)-6-(cyclopentyloxy) naphthalene-2-sulfonamide trifluoroacetate], with 1 to 10 µM.

`COc1cc(C(F)(F)[C@H](NS(=O)(=O)c2ccc(OCC3CCCCC3)cc2)C(=O)N2CCC(N)CC2)ccc1Br` [Compound 145-1, (R)—N-(3-(4-aminopiperidin-1-yl)-1-(4-bromo-3-methoxyphenyl)-1,1-difluoro-3-oxopropan-2-yl)-4-(cyclohexylmethoxy)benzenesulfonamide trifluoroacetate] gave an IC50 in test [2] (setting [4]) of less than 1 µM. With `COc1cc(C(F)(F)[C@@H](NS(=O)(=O)c2ccc(OCC3CCCCC3)cc2)C(=O)N2CCC(N)CC2)ccc1Br` [Compound 145-2, (S)—N-(3-(4-aminopiperidin-1-yl)-1-(4-bromo-3-methoxyphenyl)-1,1-difluoro-3-oxopropan-2-yl)-4-(cyclohexylmethoxy) benzenesulfonamide trifluoroacetate], the IC50 in test [2] (setting [3]) was 30 to 100 µM. The compound `COc1cc(C(F)(F)[C@H](NS(=O)(=O)c2ccc(OCC3CCCCC3)cc2)C(=O)N2CCC(N)CC2)ccc1-c1ccc(Cl)cc1` [Compound 146-1, (R)—N-(3-(4-aminopiperidin-1-yl)-1-(4′-chloro-2-methoxy-[1,1′-biphenyl]-4-yl)-1,1-difluoro-3-oxopropan-2-yl)-4-(cyclohexylmethoxy) benzenesulfonamide trifluoroacetate] showed an IC50 in test [2] (setting [4]) of less than 1 µM.
